PubChem BioAssay (NCI)
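Cells were grown in 96-well plates and exposed to each compound for 48 hours at five concentrations; endpoints were interpolated linearly between bracketing concentrations, or set to the highest concentration if not reached. TGI is the concentration that stops growth completely.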

Tests used:
Assay in all cases: growth of human tumour cells (NCI), 48 h
[1] = system: HOP-62 NSCLC
[2] = system: PC-3 prostate
[3] = system: SK-MEL-28 melanoma
[4] = system: HL-60(TB) leukemia
[5] = system: 786-0 renal
[6] = system: EKVX NSCLC
[7] = system: SR leukemia
[8] = system: HOP-92 NSCLC
[9] = system: NCI-H226 lung
[10] = system: DU-145 prostate
[11] = system: NCI-H522 lung
[12] = system: M14 melanoma
[13] = system: HT29 colon
[14] = system: SF-295 CNS
[15] = system: MDA-N
[16] = system: SK-MEL-2 melanoma
[17] = system: OVCAR-8 ovarian
[18] = system: SN12C renal
[19] = system: CAKI-1 renal
[20] = system: SNB-19 CNS
[21] = system: RXF 393 renal
[22] = system: TK-10 renal
[23] = system: ACHN renal
[24] = system: RPMI-8226 leukemia
[25] = system: SK-MEL-5 melanoma
[26] = system: NCI/ADR-RES ovarian
[27] = system: IGROV1 ovarian
[28] = system: OVCAR-5 ovarian
[29] = system: SK-OV-3 ovarian
[30] = system: MOLT-4 leukemia
[31] = system: LOX IMVI melanoma
[32] = system: A549 NSCLC
[33] = system: HCT-116 colon
[34] = system: T-47D breast
[35] = system: K-562 leukemia
[36] = system: HCT-15 colon
[37] = system: OVCAR-3 ovarian
[38] = system: UO-31 renal
[39] = system: UACC-257 melanoma
[40] = system: OVCAR-4 ovarian
[41] = system: NCI-H23 lung
[42] = system: CCRF-CEM leukemia
[43] = system: UACC-62 melanoma
[44] = system: HS 578T breast
[45] = system: MALME-3M melanoma
[46] = system: SW-620 colon
[47] = system: SF-539 CNS
[48] = system: MDA-MB-231 breast
[49] = system: KM12 colon
[50] = system: MCF7 breast
[51] = system: SNB-75 CNS
[52] = system: A498 renal
[53] = system: NCI-H460 lung
[54] = system: SF-268 CNS
[55] = system: BT-549 breast
[56] = system: MDA-MB-435
[57] = system: U251 CNS
[58] = system: COLO 205 colon

Q: `C#CC1(O)C(COP(=O)(O)OC(COCCCCCCCCCCCCCCCCCC)COP(=O)(O)OCC2OC(n3cc(C)c(=O)[nH]c3=O)CC2N=[N+]=[N-])OC(n2ccc(N)nc2=O)C1O` (stereo unspecified) was tested. Which TGI [1] did it give?
A: > 74.2 µM

Q: And the TGI [2]?
A: > 81.6 µM

Q: What about the TGI [3] of the same compound?
A: 22.4 µM

Q: And the TGI [4]?
A: 16 µM

Q: What about the TGI [5] of the same compound?
A: > 100 µM

Q: What about the TGI [6] of the same compound?
A: > 67.2 µM

Q: What about the TGI [7] of the same compound?
A: > 86.3 µM

Q: What about the TGI [8] of the same compound?
A: 31.9 µM

Q: What about the TGI [9] of the same compound?
A: > 91.2 µM

Q: What about the TGI [10] of the same compound?
A: > 100 µM

Q: What about the TGI [11] of the same compound?
A: 1330 nM

Q: What about the TGI [12] of the same compound?
A: 26.1 µM

Q: What about the TGI [13] of the same compound?
A: > 50.9 µM

Q: What about the TGI [14] of the same compound?
A: 10.7 µM

Q: What about the TGI [15] of the same compound?
A: 20.5 µM

Q: And the TGI [16]?
A: 2440 nM

Q: What about the TGI [17] of the same compound?
A: > 42.2 µM

Q: What about the TGI [18] of the same compound?
A: > 100 µM

Q: What about the TGI [19] of the same compound?
A: > 29 µM

Q: What about the TGI [20] of the same compound?
A: 17.3 µM

Q: What about the TGI [21] of the same compound?
A: 30.6 µM

Q: What about the TGI [22] of the same compound?
A: 10.2 µM

Q: What about the TGI [23] of the same compound?
A: > 72.5 µM

Q: What about the TGI [24] of the same compound?
A: 1050 nM

Q: And the TGI [25]?
A: > 100 µM

Q: And the TGI [26]?
A: 16.6 µM

Q: And the TGI [27]?
A: 5.05 µM

Q: What about the TGI [28] of the same compound?
A: > 92.7 µM

Q: What about the TGI [29] of the same compound?
A: 29.7 µM

Q: And the TGI [30]?
A: 59.5 µM

Q: What about the TGI [31] of the same compound?
A: 13 µM

Q: And the TGI [32]?
A: 20.2 µM

Q: What about the TGI [33] of the same compound?
A: > 100 µM

Q: What about the TGI [34] of the same compound?
A: > 77 µM

Q: What about the TGI [35] of the same compound?
A: > 71.4 µM

Q: And the TGI [36]?
A: > 47.8 µM

Q: What about the TGI [37] of the same compound?
A: 28.7 µM

Q: And the TGI [38]?
A: 2690 nM

Q: What about the TGI [39] of the same compound?
A: > 77.3 µM

Q: And the TGI [40]?
A: 30.9 µM

Q: What about the TGI [41] of the same compound?
A: 23.1 µM

Q: What about the TGI [42] of the same compound?
A: 18.9 µM

Q: What about the TGI [43] of the same compound?
A: 18.8 µM

Q: What about the TGI [44] of the same compound?
A: 62.9 µM

Q: And the TGI [45]?
A: 36.8 µM

Q: And the TGI [46]?
A: 33.4 µM

Q: And the TGI [47]?
A: 14.1 µM

Q: And the TGI [48]?
A: 32.2 µM

Q: And the TGI [49]?
A: 20.5 µM

Q: And the TGI [50]?
A: 8.67 µM

Q: And the TGI [51]?
A: 22.3 µM

Q: What about the TGI [52] of the same compound?
A: 17.1 µM

Q: And the TGI [53]?
A: 17.6 µM

Q: What about the TGI [54] of the same compound?
A: 21.7 µM

Q: And the TGI [55]?
A: 31 µM

Q: What about the TGI [56] of the same compound?
A: 8.38 µM

Q: And the TGI [57]?
A: 22 µM

Q: And the TGI [58]?
A: 5.23 µM

Q: With `CCOc1ccccc1/C=C(/C#N)C(N)=O` as the compound, how does the TGI [1] read?
A: > 100 µM

Q: And the TGI [2]?
A: > 100 µM

Q: And the TGI [3]?
A: > 100 µM

Q: What about the TGI [4] of the same compound?
A: > 100 µM

Q: What about the TGI [5] of the same compound?
A: > 100 µM

Q: And the TGI [6]?
A: > 100 µM

Q: And the TGI [7]?
A: > 100 µM

Q: What about the TGI [8] of the same compound?
A: > 100 µM

Q: And the TGI [9]?
A: > 100 µM

Q: And the TGI [10]?
A: > 100 µM

Q: What about the TGI [11] of the same compound?
A: > 100000 nM

Q: What about the TGI [12] of the same compound?
A: > 100 µM

Q: And the TGI [13]?
A: > 100 µM

Q: And the TGI [14]?
A: > 100 µM

Q: And the TGI [15]?
A: 45.7 µM

Q: What about the TGI [16] of the same compound?
A: > 100000 nM

Q: And the TGI [17]?
A: > 100 µM

Q: And the TGI [18]?
A: > 100 µM

Q: What about the TGI [19] of the same compound?
A: > 100 µM

Q: And the TGI [20]?
A: > 100 µM

Q: And the TGI [21]?
A: > 100 µM

Q: What about the TGI [22] of the same compound?
A: > 100 µM

Q: What about the TGI [23] of the same compound?
A: > 100 µM

Q: What about the TGI [24] of the same compound?
A: > 100000 nM

Q: And the TGI [25]?
A: > 100 µM

Q: And the TGI [26]?
A: > 100 µM

Q: What about the TGI [27] of the same compound?
A: > 100 µM

Q: What about the TGI [28] of the same compound?
A: > 100 µM

Q: What about the TGI [29] of the same compound?
A: > 100 µM

Q: And the TGI [30]?
A: > 100 µM

Q: What about the TGI [31] of the same compound?
A: > 100 µM

Q: And the TGI [32]?
A: > 100 µM

Q: And the TGI [33]?
A: > 100 µM

Q: What about the TGI [34] of the same compound?
A: > 100 µM

Q: What about the TGI [35] of the same compound?
A: > 100 µM

Q: What about the TGI [36] of the same compound?
A: > 100 µM

Q: And the TGI [37]?
A: > 100 µM

Q: And the TGI [38]?
A: > 100000 nM

Q: And the TGI [39]?
A: > 100 µM

Q: What about the TGI [40] of the same compound?
A: > 100 µM

Q: And the TGI [41]?
A: > 100 µM

Q: And the TGI [42]?
A: 73.7 µM

Q: And the TGI [43]?
A: > 100 µM

Q: What about the TGI [44] of the same compound?
A: > 100 µM

Q: What about the TGI [45] of the same compound?
A: > 100 µM

Q: And the TGI [46]?
A: > 100 µM

Q: And the TGI [47]?
A: > 100 µM

Q: What about the TGI [48] of the same compound?
A: > 100 µM

Q: What about the TGI [49] of the same compound?
A: > 100 µM

Q: And the TGI [50]?
A: > 100 µM

Q: And the TGI [51]?
A: > 100 µM

Q: And the TGI [52]?
A: > 100 µM

Q: And the TGI [53]?
A: > 100 µM

Q: And the TGI [54]?
A: > 100 µM

Q: What about the TGI [55] of the same compound?
A: > 100 µM

Q: What about the TGI [56] of the same compound?
A: 41.9 µM

Q: And the TGI [57]?
A: > 100 µM

Q: And the TGI [58]?
A: > 100 µM
